Our source for the TGI values is PubChem BioAssay (NCI).

Molecules are shown by their SMILES.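 Results reflect a 48-hour exposure of cells in 96-well plates to compound at five concentrations. TGI: concentration producing complete growth inhibition.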

Test systems include A498 renal; ACHN renal; EKVX NSCLC; HCT-116 colon; HT29 colon; LOX IMVI melanoma; MCF7 breast; MDA-MB-231 breast; OVCAR-3 ovarian; OVCAR-4 ovarian; PC-3 prostate; RXF 393 renal; SK-MEL-28 melanoma; SK-OV-3 ovarian; SW-620 colon; TK-10 renal; U251 CNS; UACC-257 melanoma; UACC-62 melanoma; UO-31 renal.
Common to all, as to assay: inhibition of tumour cell growth, NCI panel, 48 h

For `Cc1ccc(S(=O)(=O)ON2C(=O)c3c(N)c(C#N)c(-c4ccccc4)c(-c4ccccc4)c3C2=O)cc1`, the TGI in the assay with A498 renal turned out to be 44.1 µM; in the assay on ACHN renal, 31.1 µM; in the assay with EKVX NSCLC, 29.1 µM; in the assay with HCT-116 colon it was 33.1 µM; with HT29 colon, 42.2 µM; in the assay with LOX IMVI melanoma, 31.1 µM. The TGI came to 37.4 µM with MCF7 breast; 36.4 µM in the assay with MDA-MB-231 breast; 27.2 µM with OVCAR-3 ovarian; 52.4 µM in the assay on OVCAR-4 ovarian; 32.7 µM in the assay on PC-3 prostate; 26.5 µM in the assay with RXF 393 renal. In addition, the TGI in the assay on SK-MEL-28 melanoma was 29.4 µM; with SK-OV-3 ovarian, over 100 µM; in the assay on SW-620 colon, 30.8 µM; in the assay with TK-10 renal, 36.8 µM; in the assay with U251 CNS it was 30.6 µM; in the assay on UACC-257 melanoma it was 38 µM. Moreover, in the assay on UACC-62 melanoma, the TGI is 33.7 µM.
Take `c1ccc2nn(C3CCCO3)nc2c1` (stereo not drawn): the TGI in the assay on A498 renal, with EKVX NSCLC, in the assay with HCT-116 colon, with HT29 colon, in the assay on MCF7 breast and in the assay with MDA-MB-231 breast was over 100 µM throughout. The TGI in the assay with OVCAR-3 ovarian, in the assay on OVCAR-4 ovarian, with PC-3 prostate, in the assay with RXF 393 renal, with SK-OV-3 ovarian and in the assay on TK-10 renal was over 100 µM each time. Moreover, the TGI with U251 CNS, with UACC-257 melanoma and with UACC-62 melanoma was over 100 µM each time.
On to `C=CC(OC(=O)C(C)C)c1ccc(OC(=O)C(C)C)cc1` (stereo not drawn), for which the TGI with A498 renal came to 31.6 µM; in the assay on ACHN renal it was 28 µM; in the assay with EKVX NSCLC, 39.3 µM; in the assay with HCT-116 colon, 20.6 µM; in the assay on HT29 colon, 26.3 µM; in the assay with LOX IMVI melanoma it was 16.6 µM. In addition, the TGI in the assay with MCF7 breast was determined as 12.2 µM; in the assay with MDA-MB-231 breast it was 35.5 µM; in the assay with OVCAR-3 ovarian it was 31.1 µM; in the assay on OVCAR-4 ovarian it was 33.8 µM; in the assay with PC-3 prostate it was 21.9 µM; with SK-MEL-28 melanoma, 23.8 µM. The TGI in the assay on SK-OV-3 ovarian was found to be 34 µM; in the assay on SW-620 colon, 20.7 µM; in the assay on U251 CNS it was 15.3 µM; in the assay on UACC-257 melanoma it was 27.9 µM; in the assay on UACC-62 melanoma, 31 µM; in the assay on UO-31 renal it was 30.9 µM.
As to `COC(=O)[C@H](COC(C)(C)C)NC(=O)N[C@H](C)c1ccccc1`, the TGI in the assay with A498 renal, with ACHN renal, in the assay on EKVX NSCLC, with HCT-116 colon, in the assay on HT29 colon and in the assay on LOX IMVI melanoma was over 100 µM each time. The TGI in the assay with MCF7 breast, with MDA-MB-231 breast, in the assay with OVCAR-3 ovarian, with OVCAR-4 ovarian, with PC-3 prostate and with SK-MEL-28 melanoma was over 100 µM each time. Besides, the TGI in the assay on SK-OV-3 ovarian, with SW-620 colon, in the assay on TK-10 renal, in the assay with U251 CNS, in the assay on UACC-257 melanoma and in the assay with UACC-62 melanoma was over 100 µM in each case. Also, the TGI in the assay with UO-31 renal was over 100 µM.
For `CC(CNC(=O)c1ccccc1)(CNC(=O)c1ccccc1)[N+](=O)[O-]`, the TGI with ACHN renal, in the assay on EKVX NSCLC, with HCT-116 colon, with HT29 colon, in the assay on MCF7 breast and in the assay with MDA-MB-231 breast was over 100 µM throughout. For the same compound, the TGI with PC-3 prostate, in the assay on RXF 393 renal, with SK-OV-3 ovarian, in the assay with SW-620 colon, with TK-10 renal and in the assay on U251 CNS was over 100 µM each time. In addition, the TGI with UACC-257 melanoma, in the assay on UACC-62 melanoma and with UO-31 renal was over 100 µM each time.
As to `CCOC(=O)C1(C#N)C(C#N)(C#N)C1(C#N)C#N`, the TGI in the assay on A498 renal, in the assay on ACHN renal, in the assay with EKVX NSCLC, in the assay on HCT-116 colon, with HT29 colon and in the assay with LOX IMVI melanoma was over 100 µM throughout. The TGI with MCF7 breast, in the assay on MDA-MB-231 breast, in the assay with OVCAR-4 ovarian, in the assay with PC-3 prostate, in the assay on RXF 393 renal and with SK-MEL-28 melanoma was over 100 µM each time. The TGI in the assay on SK-OV-3 ovarian, with SW-620 colon, with TK-10 renal, in the assay on U251 CNS, in the assay with UACC-257 melanoma and in the assay with UACC-62 melanoma was over 100 µM throughout. The same compound returned a TGI in the assay with UO-31 renal of over 100 µM.
With `CC(=O)OCC1OC(OC(C)=O)C(Nc2ncc(-c3ccc(C)cc3)s2)C(OC(C)=O)C1OC(C)=O` (stereo not drawn), the TGI came out at 27.7 µM in the assay with ACHN renal; 27.6 µM with EKVX NSCLC; 32.1 µM in the assay on HCT-116 colon; 56.1 µM with HT29 colon; 32 µM with LOX IMVI melanoma; 52.1 µM with MCF7 breast. The TGI was 49.8 µM with MDA-MB-231 breast; 35.1 µM in the assay on OVCAR-3 ovarian; 35.4 µM with OVCAR-4 ovarian; 45.3 µM in the assay on PC-3 prostate; 29.6 µM in the assay on RXF 393 renal; 31.2 µM in the assay with SK-MEL-28 melanoma. Also, the TGI is over 100 µM in the assay on SK-OV-3 ovarian; 45.4 µM in the assay on SW-620 colon; 32.9 µM in the assay with TK-10 renal; 31.6 µM in the assay on U251 CNS; 49.1 µM in the assay on UACC-257 melanoma; 29 µM in the assay with UACC-62 melanoma. The same compound had a TGI with UO-31 renal of 27.9 µM.
As to `C=C1CC(C)(COc2cc(=O)oc3ccccc23)OC1=O` (stereo not drawn), the TGI came to 8.74 µM in the assay on A498 renal; 15.8 µM with ACHN renal; 29.4 µM with EKVX NSCLC; 9.64 µM in the assay with HCT-116 colon; 13.3 µM in the assay on HT29 colon; 11.5 µM with LOX IMVI melanoma. In addition, the TGI in the assay on MCF7 breast is 4.28 µM; with MDA-MB-231 breast, 23.1 µM; in the assay with OVCAR-3 ovarian it was 16.7 µM; in the assay on OVCAR-4 ovarian, 16.9 µM; in the assay with PC-3 prostate it was 17.5 µM; in the assay on SK-MEL-28 melanoma, 10.8 µM. Also, the TGI with SK-OV-3 ovarian was 22.5 µM; with SW-620 colon, 11.4 µM; in the assay with TK-10 renal it was 5.16 µM; in the assay on U251 CNS, 28.9 µM; in the assay with UACC-257 melanoma it was 6.1 µM; in the assay on UACC-62 melanoma, 8.65 µM. Also, in the assay with UO-31 renal, the TGI was 24.8 µM.
